In patent US20230416248A1, “COMPOUNDS AND USES THEREOF” (Foghorn Therapeutics Inc., priority 2020, published 2023):

What was measured:
[1] = biological target: T1, BRM (Homo sapiens, UniProt P51531); experiment: ATPase catalytic activity of BRM, ADP-Glo in vitro biochemical assay; conditions: for IC50: ADP-Glo ATPase assay, 30 nM BRM, 400 μM ATP; for Ratio* (BRG1 IC50 (μM) divided by BRM IC50 (μM)): selectivity ratio BRG1 IC50 / BRM IC50
T1 construct: made in house; host or cells: High Five insect cells
T1 sequence (P51531 whole entry): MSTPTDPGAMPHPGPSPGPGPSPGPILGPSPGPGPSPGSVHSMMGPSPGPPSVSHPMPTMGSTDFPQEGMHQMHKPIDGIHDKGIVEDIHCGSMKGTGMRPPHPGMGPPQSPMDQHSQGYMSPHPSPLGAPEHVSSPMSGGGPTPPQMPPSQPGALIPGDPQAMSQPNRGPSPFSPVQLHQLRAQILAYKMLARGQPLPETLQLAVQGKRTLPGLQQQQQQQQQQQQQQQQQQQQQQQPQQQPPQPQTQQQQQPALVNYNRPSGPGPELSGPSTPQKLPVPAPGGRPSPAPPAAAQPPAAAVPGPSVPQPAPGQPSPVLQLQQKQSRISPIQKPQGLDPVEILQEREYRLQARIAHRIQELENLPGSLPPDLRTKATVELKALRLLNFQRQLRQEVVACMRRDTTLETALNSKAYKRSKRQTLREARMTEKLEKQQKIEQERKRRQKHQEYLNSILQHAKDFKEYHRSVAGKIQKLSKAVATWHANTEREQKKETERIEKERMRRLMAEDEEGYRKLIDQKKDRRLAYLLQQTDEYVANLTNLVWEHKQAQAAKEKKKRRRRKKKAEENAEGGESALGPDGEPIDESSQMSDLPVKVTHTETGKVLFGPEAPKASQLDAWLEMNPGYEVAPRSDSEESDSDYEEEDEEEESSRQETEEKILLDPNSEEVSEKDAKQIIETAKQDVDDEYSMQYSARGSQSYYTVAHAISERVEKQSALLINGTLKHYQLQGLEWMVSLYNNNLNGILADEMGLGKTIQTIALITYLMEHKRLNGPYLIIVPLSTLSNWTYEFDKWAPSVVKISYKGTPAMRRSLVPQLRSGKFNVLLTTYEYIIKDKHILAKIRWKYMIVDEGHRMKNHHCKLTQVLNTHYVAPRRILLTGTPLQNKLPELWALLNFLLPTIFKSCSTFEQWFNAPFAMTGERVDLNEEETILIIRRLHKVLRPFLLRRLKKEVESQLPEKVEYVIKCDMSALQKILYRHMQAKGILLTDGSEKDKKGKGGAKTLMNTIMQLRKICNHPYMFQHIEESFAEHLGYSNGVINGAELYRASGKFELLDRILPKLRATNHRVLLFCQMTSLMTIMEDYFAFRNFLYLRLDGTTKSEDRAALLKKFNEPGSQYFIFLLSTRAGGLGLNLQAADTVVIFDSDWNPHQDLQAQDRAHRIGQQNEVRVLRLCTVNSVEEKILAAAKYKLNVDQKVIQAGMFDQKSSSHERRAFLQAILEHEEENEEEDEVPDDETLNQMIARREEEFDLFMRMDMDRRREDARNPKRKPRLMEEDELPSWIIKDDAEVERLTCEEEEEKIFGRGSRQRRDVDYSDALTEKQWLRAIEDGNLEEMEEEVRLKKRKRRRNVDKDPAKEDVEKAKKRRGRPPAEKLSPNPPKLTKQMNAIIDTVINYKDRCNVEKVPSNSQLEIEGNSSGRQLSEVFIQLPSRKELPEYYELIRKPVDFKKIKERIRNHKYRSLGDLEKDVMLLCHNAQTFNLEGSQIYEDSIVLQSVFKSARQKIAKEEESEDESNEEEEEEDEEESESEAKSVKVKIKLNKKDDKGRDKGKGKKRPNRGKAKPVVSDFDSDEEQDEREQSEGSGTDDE
Procedure, shortened: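 Recombinant BRM (30 nM) hydrolysed 400 μM ATP with 20 nM salmon sperm DNA in pH 8 Tris buffer containing 20 mM MgCl2, 50 mM NaCl, 0.1% Tween-20 and 1 mM DTT, 1 h at room temperature. ADP formed was quantified by ADP-Glo luminescence.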

[2] = biological target: T2, BRG-1 (Homo sapiens, UniProt P51532); experiment: ATPase catalytic activity of BRG-1, ADP-Glo in vitro biochemical assay; conditions: ADP-Glo ATPase assay, 30 nM BRG-1, 400 μM ATP; read-out: BRG1 IC50
T2 construct: made in house; host or cells: High Five insect cells
T2 sequence (P51532 whole entry): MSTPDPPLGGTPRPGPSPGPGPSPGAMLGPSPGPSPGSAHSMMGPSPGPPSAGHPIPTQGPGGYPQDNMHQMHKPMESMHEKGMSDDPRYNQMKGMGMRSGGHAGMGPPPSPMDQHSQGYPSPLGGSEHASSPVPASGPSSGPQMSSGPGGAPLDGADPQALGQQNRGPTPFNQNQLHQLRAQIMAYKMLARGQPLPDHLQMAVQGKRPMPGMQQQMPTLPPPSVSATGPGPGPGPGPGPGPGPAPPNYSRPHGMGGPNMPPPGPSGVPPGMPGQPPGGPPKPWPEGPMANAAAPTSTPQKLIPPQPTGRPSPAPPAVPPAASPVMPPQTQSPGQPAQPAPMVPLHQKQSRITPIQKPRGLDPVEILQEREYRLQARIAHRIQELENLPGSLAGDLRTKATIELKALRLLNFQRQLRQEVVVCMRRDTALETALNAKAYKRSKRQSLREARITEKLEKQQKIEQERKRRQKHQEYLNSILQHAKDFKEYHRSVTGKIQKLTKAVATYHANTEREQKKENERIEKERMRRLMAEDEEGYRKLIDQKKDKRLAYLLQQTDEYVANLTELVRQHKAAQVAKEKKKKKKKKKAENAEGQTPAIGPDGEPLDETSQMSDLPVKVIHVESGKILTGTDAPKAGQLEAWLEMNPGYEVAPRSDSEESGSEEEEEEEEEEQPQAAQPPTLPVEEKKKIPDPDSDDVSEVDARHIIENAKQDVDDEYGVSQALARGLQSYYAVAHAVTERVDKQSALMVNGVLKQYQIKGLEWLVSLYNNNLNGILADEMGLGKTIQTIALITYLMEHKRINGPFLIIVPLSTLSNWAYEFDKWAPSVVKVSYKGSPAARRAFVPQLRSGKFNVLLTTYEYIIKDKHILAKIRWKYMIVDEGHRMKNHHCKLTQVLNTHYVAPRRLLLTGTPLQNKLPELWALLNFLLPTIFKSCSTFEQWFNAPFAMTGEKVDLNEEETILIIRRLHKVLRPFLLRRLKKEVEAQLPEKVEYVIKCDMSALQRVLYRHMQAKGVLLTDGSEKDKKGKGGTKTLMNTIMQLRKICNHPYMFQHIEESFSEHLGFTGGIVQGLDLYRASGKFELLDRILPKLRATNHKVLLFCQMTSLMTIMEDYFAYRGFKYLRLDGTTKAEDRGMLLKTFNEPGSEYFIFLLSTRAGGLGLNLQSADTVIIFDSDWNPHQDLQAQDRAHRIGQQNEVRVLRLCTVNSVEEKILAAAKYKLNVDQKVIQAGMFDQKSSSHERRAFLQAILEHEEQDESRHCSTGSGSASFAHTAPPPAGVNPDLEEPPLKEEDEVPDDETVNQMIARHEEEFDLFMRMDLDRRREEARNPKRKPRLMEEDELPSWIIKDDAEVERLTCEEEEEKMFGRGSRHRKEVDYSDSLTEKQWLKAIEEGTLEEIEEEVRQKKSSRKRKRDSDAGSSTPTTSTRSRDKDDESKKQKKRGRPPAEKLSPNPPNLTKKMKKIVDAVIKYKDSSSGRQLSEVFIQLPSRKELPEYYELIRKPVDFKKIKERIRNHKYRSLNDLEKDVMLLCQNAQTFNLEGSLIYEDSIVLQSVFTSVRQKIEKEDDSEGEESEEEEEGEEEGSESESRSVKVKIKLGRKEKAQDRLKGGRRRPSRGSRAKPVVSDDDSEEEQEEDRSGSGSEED
Description: The ATPase catalytic activity of BRM or BRG-1 was measured by an in vitro biochemical assay using ADP-Glo™ (Promega, V9102). The ADP-Glo™ kinase assay is performed in two steps once the reaction is complete. The first step is to deplete any unconsumed ATP in the reaction. The second step is to convert the reaction product ADP to ATP, which will be utilized by the luciferase to generate luminesce and be detected by a luminescence reader, such as Envision.
Then, following addition of 5 μL of ADP-Glo™ Reagent provided in the kit, the reaction incubates at room temperature for 40 minutes. Then, 10 μL of Kinase Detection Reagent provided in the kit is added to convert ADP to ATP, and the reaction incubates at room temperature for 60 minutes. Finally, luminescence measurement is collected with a plate-reading luminometer, such as Envision.

Row | Compound | IC50 [1] [nM] | Ratio* (BRG1 IC50 (μM) divided by BRM IC50 (μM)) [1] | IC50 [2] [nM]
1 | CS(=O)(=O)c1cc(C(=O)NCc2cc3nc(-c4cccc(N5CC[C@@H]6COCC6C5)n4)ccc3cn2)ccc1C(F)F (stereo partly drawn) [Compound 86] | 22.5 | 14.43 | 324
2 | O=C(NCc1cc2nc(N3CCc4cnccc4C3)ccc2cn1)c1ccc2c(c1)S(=O)(=O)CCOC2 [Compound 87] | 689 | 7.14 | 4920
3 | COCCN1CCOc2c(-c3ccc4cnc(CNC(=O)c5ccc(Cl)c(S(C)(=O)=O)c5)cc4n3)cccc21 [Compound 88] | 34.2 | 15.63 | 535
4 | COCCN1CCOc2c(-c3ccc4cnc(CNC(=O)c5ccc(C(F)F)c(S(C)(=O)=O)c5)cc4n3)cccc21 [Compound 89] | 30.8 | 21.02 | 648
5 | O=C(NCc1cc2nc(N3CCCc4cnccc43)ccc2cn1)c1ccc2c(c1)S(=O)(=O)CCOC2 [Compound 90] | 166 | 12.89 | 2140
6 | C[C@@H]1CN(c2cccc(-c3ccc4cnc(CNC(=O)c5ccc6c(c5)S(=O)(=O)CCCC6)cc4n3)n2)C[C@H](C)O1 [Compound 91] | 4.8 | 3.52 | 17
7 | CO[C@@H]1CCCN(c2cccc(-c3ccc4cnc(CNC(=O)c5ccc6c(c5)S(=O)(=O)CCOC6)cc4n3)n2)C1 [Compound 92] | 7.7 | 13.36 | 103
8 | CO[C@H]1CCCN(c2cccc(-c3ccc4cnc(CNC(=O)c5ccc6c(c5)S(=O)(=O)CCOC6)cc4n3)n2)C1 [Compound 93] | 9.6 | 9.74 | 93.6
9 | CN(c1cccc(-c2ccc3cnc(CNC(=O)c4ccc5c(c4)S(=O)(=O)CCOC5)cc3n2)n1)C1CC1 [Compound 94] | 32 | 9.02 | 288
10 | CS(=O)(=O)c1cc(C(=O)NCc2cc3nc(-c4cccc(N5CC[C@H]6COC[C@H]6C5)n4)ccc3cn2)ccc1C(F)F [Compound 95] | 40.7 | 15.00 | 610
11 | CS(=O)(=O)c1cc(C(=O)NCc2cc3nc(-c4cccc(N5CC[C@@H]6COC[C@@H]6C5)n4)ccc3cn2)ccc1C(F)F [Compound 96] | 49.7 | 14.09 | 700
12 | COCCN(C)c1cccc(-c2ccc3cnc(CNC(=O)c4ccc(Cl)c(S(C)(=O)=O)c4)cc3n2)n1 [Compound 97] | 20.3 | 15.97 | 324
13 | CS(=O)(=O)c1cc(C(=O)NCc2cc3nc(-c4cccc(N5CC[C@H]6OCC[C@@H]6C5)n4)ccc3cn2)ccc1Cl [Compound 98] | 33 | 7.80 | 257
14 | CS(=O)(=O)c1cc(C(=O)NCc2cc3nc(-c4cccc(N5CC[C@@H]6OCC[C@H]6C5)n4)ccc3cn2)ccc1Cl [Compound 99] | 78.7 | 11.24 | 884
15 | COCCN(C)c1cccc(-c2ccc3cnc(CNC(=O)c4cc(F)c5c(c4)S(=O)(=O)CCOC5)cc3n2)n1 [Compound 100] | 8 | 11.83 | 94.1
16 | Cc1cc(C(=O)NCc2cc3nc(-c4cccc(N5C[C@@H](C)O[C@@H](C)C5)n4)ccc3cn2)cc2c1COCCS2(=O)=O [Compound 101] | 7.9 | 7.32 | 57.7
17 | COc1cc(Cl)ccc1-c1ccc2cnc(CNC(=O)c3ccc4c(c3)S(=O)(=O)CCOC4)cc2n1 [Compound 102] | 18.7 | 7.68 | 143
18 | O=C(NCc1cc2nc(-c3cccc(OCC(F)F)c3)ccc2cn1)c1ccc2c(c1)S(=O)(=O)CCOC2 [Compound 103] | 252 | 10.96 | 2770
19 | C[C@@H]1COC[C@H](C)N1c1cccc(-c2ccc3cnc(CNC(=O)c4ccc5c(c4)S(=O)(=O)CCOC5)cc3n2)n1 [Compound 104] | 203 | 4.45 | 903
20 | COCCN(C)c1cccc(-c2ccc3cnc(CNC(=O)c4cnc(C(F)F)c(S(C)(=O)=O)c4)cc3n2)n1 [Compound 105] | 69.9 | 13.41 | 937
